Format in all cases: cell-based
In assay [1] the target is EP2 subtype of the human PGE2 receptor (Homo sapiens, UniProt P43116). Description: cAMP antagonism test on the human EP2 receptor (HTRF cAMP detection). To be noted: hEP2 receptor, read-out: Antagonism hEP2 IC50. In a few lines:
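Cells expressing human EP2 preincubated 20 min at RT with compound (0.8 nM–16.5 μM), then stimulated 60 min with PGE2 (3× solution 1.5 nM) in PBS-IBMX. After 20 min lysis, cAMP measured by competitive HTRF with cAMP-d2 and Eu cryptate anti-cAMP antibody (665/620 nm ratio).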
(In TR-FRET formats the signal depends on donor and acceptor labels being close together.)

In assay [2] the target is EP4 subtype of the human PGE2 receptor (Homo sapiens, UniProt P35408). Nature of the assay: cAMP antagonism test on the human EP4 receptor (HTRF cAMP detection). The note with it: selectivity towards hEP4, IC50 measured by cAMP antagonism test. The gist of the method:
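Cells expressing human EP4 preincubated 20 min at RT with compound (0.8 nM–16.5 μM), then stimulated with PGE2 (0.3 nM in 3× solution, with IBMX) 60 min at RT. After lysis, cAMP measured by HTRF competition (665/620 nm ratio); antagonism seen as rise in FRET signal.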

The target of a further assay is T1, human PGD receptor (Homo sapiens, UniProt Q13258).
T1 sequence (Q13258 1-359): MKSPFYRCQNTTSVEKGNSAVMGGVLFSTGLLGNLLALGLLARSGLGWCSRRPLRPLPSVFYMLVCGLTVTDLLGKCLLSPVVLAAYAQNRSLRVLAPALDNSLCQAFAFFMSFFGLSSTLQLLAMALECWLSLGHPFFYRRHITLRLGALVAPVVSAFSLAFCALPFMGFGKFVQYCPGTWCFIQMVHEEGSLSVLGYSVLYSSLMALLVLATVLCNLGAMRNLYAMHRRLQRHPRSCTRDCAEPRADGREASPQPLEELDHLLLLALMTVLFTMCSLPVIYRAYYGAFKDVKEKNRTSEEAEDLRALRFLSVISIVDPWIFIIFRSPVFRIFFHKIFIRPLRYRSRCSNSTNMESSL
Nature of the assay: cAMP antagonism test on the human prostaglandin D receptor (HTRF cAMP detection). The note with it: selectivity towards hDP, IC50 measured by cAMP antagonism test. In a few lines: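 Cells pre-mixed with cAMP-d2 were preincubated with compound (0.8 nM–16.5 μM) for 20 min at RT, then stimulated with 3× PGD2 solution (6 nM, in PBS-IBMX) for 30 min at RT. After lysis (20 min), HTRF read at 665/620 nm; antagonism seen as rise in FRET ratio.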

As a reminder, the IC50 is the concentration that inhibits the measured activity by half.

Chain of EP2 subtype of the human PGE2 receptor (P43116 whole entry): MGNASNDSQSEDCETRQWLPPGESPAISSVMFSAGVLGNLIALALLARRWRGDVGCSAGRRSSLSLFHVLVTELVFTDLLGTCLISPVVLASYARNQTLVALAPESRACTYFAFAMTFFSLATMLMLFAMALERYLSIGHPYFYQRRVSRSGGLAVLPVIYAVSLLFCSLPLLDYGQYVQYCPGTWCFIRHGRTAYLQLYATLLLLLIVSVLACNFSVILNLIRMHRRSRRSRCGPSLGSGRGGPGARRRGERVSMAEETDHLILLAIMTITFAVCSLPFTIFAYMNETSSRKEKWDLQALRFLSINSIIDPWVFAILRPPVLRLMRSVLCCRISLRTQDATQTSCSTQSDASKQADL
Chain of EP4 subtype of the human PGE2 receptor (P35408 whole entry): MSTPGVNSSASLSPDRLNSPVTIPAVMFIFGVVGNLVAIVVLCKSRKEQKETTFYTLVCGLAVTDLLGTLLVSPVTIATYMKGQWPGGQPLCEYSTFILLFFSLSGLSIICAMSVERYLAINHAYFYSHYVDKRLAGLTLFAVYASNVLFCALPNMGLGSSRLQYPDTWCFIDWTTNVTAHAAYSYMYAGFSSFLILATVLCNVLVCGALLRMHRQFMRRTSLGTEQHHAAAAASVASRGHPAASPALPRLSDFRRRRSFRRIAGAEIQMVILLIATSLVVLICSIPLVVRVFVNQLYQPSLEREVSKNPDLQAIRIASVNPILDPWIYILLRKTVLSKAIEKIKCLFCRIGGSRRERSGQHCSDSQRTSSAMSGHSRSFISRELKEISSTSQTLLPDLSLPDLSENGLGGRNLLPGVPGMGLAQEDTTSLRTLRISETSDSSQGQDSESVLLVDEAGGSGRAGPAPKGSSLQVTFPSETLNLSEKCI

For the molecule `Cc1c(C(=O)NCCOCC2CC2)ccc2nn(CC3CCN(C(=O)c4ccc(Cl)cc4)CC3)cc12` [Example 84, 2-{[1-(4-chlorobenzoyl)piperidin-4-yl]methyl}-N-[2-(cyclopropylmethoxy)ethyl]-4-methyl-2H-indazol-5-carboxamide], in assay [1], the IC50 stood at 0.0192 µM. In addition, the “Selectivity hEP2/hEP4” value in assay [2] was “xxx (xxx > 100)”. Moreover, the “Selectivity hEP2/hDP” value at human PGD receptor is “xxx (xxx > 100)”.
Turning to `COCCNC(=O)c1cc2cn(CC3CCN(C(=O)c4ccc(C(F)(F)F)cc4F)CC3)nc2cc1C` [Example 206, 2-({1-[2-fluoro-4-(trifluoromethyl)benzoyl]piperidin-4-yl}methyl)-N-(2-methoxy-ethyl)-6-methyl-2H-indazol-5-carboxamide], the IC50 in assay [1] amounted to 0.0413 µM. The “Selectivity hEP2/hEP4” value in assay [2] was “xxx (xxx > 100)”. In addition, the “Selectivity hEP2/hDP” value at human PGD receptor was “xxx (xxx > 100)”.
For the molecule `COCCNC(=O)c1ccc2nn(CC3CCN(C(=O)c4ccc(-c5cc(F)cc(F)c5)cc4)CC3)cc2c1C` [Example 389, 2-({1-[(3′,5′-difluorobiphenyl-4-yl)carbonyl]piperidin-4-yl}methyl)-N-(2-methoxyethyl)-4-methyl-2H-indazol-5-carboxamide], in assay [1], the 50% inhibitory concentration (IC50) amounted to 0.00451 µM. Further, the “Selectivity hEP2/hEP4” value in assay [2] was “xxx (xxx > 100)”. The “Selectivity hEP2/hDP” value at human PGD receptor is “xxx (xxx > 100)”.
For `COCCNC(=O)c1ccc2nn(CC3CCN(C(=O)c4ccc(-c5ccc(OC)cc5)cc4)CC3)cc2c1C` [Example 351, 2-({1-[(4′-methoxybiphenyl-4-yl)carbonyl]piperidin-4-yl}methyl)-N-(2-methoxy-ethyl)-4-methyl-2H-indazol-5-carboxamide], in assay [1], the IC50 was found to be 0.00684 µM. Besides, in assay [2], the “Selectivity hEP2/hEP4” value was “xxx (xxx > 100)”. Further, the “Selectivity hEP2/hDP” value at human PGD receptor is “xxx (xxx > 100)”.
`COC1CN(CCNC(=O)c2ccc3nn(CC4CCN(C(=O)c5ccc(Cl)cc5)CC4)cc3c2C)C1` [Example 238, 2-{[1-(4-chlorobenzoyl)piperidin-4-yl]methyl}-N-[2-(3-methoxyazetidin-1-yl)ethyl]-4-methyl-2H-indazol-5-carboxamide]: the IC50 in assay [1] was 0.0324 µM. In assay [2], the “Selectivity hEP2/hEP4” value is on record as “xxx (xxx > 100)”. Also, on human PGD receptor, the “Selectivity hEP2/hDP” value was “xxx (xxx > 100)”.
For the molecule `Cc1c(C(=O)NCCSC(F)(F)F)ccc2nn(CC3CN(C(=O)c4ccc(Cl)cc4)C3)cc12` [Example 127, 2-{[1-(4-chlorobenzoyl)azetidin-3-yl]methyl}-4-methyl-N-{2-[(trifluoromethyl)sulphanyl]ethyl}-2H-indazol-5-carboxamide], the IC50 in assay [1] came out at 0.0556 µM. In addition, the “Selectivity hEP2/hEP4” value in assay [2] is on record as “xxx (xxx > 100)”. The “Selectivity hEP2/hDP” value on human PGD receptor is on record as “xxx (xxx > 100)”.
Turning to `Cc1ccc(-c2ccc(C(=O)N3CCC(Cn4cc5c(C)c(C(=O)NCC(F)(F)F)ccc5n4)CC3)cc2)cn1` [Example 319, 4-methyl-2-({1-[4-(6-methylpyridin-3-yl)benzoyl]piperidin-4-yl}methyl)-N-(2,2,2-trifluoroethyl)-2H-indazol-5-carboxamide], the half-inhibitory concentration (IC50) in assay [1] was determined as 0.315 µM. Besides, the “Selectivity hEP2/hEP4” value in assay [2] was “xx (xx: 10-100)”. At human PGD receptor, the “Selectivity hEP2/hDP” value is reported as “xx (xx: 10-100)”.
As for `Cc1c(C(=O)NCC(F)(F)F)ccc2nn(CC3CCN(C(=O)c4ccc(Oc5ccc(Cl)cc5)cc4)CC3)cc12` [Example 284, 2-({1-[4-(4-chlorophenoxy)benzoyl]piperidin-4-yl}methyl)-4-methyl-N-(2,2,2-trifluoroethyl)-2H-indazol-5-carboxamide], in assay [1], the IC50 was found to be 0.0564 µM. Moreover, the “Selectivity hEP2/hEP4” value in assay [2] is listed as “xxx (xxx > 100)”. The “Selectivity hEP2/hDP” value on human PGD receptor is listed as “xxx (xxx > 100)”.
For the molecule `Cc1c(C(=O)NCC(F)(F)F)ccc2nn(CC3CCN(C(=O)c4nc5ccccc5n4C)CC3)cc12` [Example 297, 4-methyl-2-({1-[(1-methyl-1H-benzimidazol-2-yl)carbonyl]piperidin-4-yl}-methyl)-N-(2,2,2-trifluoroethyl)-2H-indazol-5-carboxamide], the IC50 in assay [1] came out at 0.46 µM. Moreover, the “Selectivity hEP2/hEP4” value in assay [2] is recorded as “xx (xx: 10-100)”. For the same molecule, the “Selectivity hEP2/hDP” value at human PGD receptor is “xx (xx: 10-100)”.
With `Cc1c(C(=O)NCC(F)(F)F)ccc2nn(CC3CCN(C(=O)c4ccc(-c5cnc(C(F)(F)F)nc5)cc4)CC3)cc12` [Example 328, 4-methyl-N-(2,2,2-trifluoroethyl)-2-[(1-{4-[2-(trifluoromethyl)pyrimidin-5-yl]-benzoyl}piperidin-4-yl)methyl]-2H-indazol-5-carboxamide], in assay [1], the IC50 came to 0.256 µM. Also, the “Selectivity hEP2/hEP4” value in assay [2] was “xx (xx: 10-100)”. The “Selectivity hEP2/hDP” value on human PGD receptor was “xx (xx: 10-100)”.
Regarding `O=C(NCCOCC1CC1)c1ccc2nn(CC3CCN(C(=O)c4ccc(-c5ccc(F)cc5)cc4)CC3)cc2c1OC(F)F` [Example 231, N-[2-(cyclopropylmethoxy)ethyl]-4-(difluoromethoxy)-2-({1-[(4′-fluorobiphenyl-4-yl)carbonyl]piperidin-4-yl}methyl)-2H-indazol-5-carboxamide], the half-inhibitory concentration (IC50) in assay [1] was found to be 0.0132 µM. Moreover, in assay [2], the “Selectivity hEP2/hEP4” value is “xxx (xxx > 100)”. Besides, on human PGD receptor, the “Selectivity hEP2/hDP” value was “xxx (xxx > 100)”.
For `COCCNC(=O)c1ccc2nn(CC3CCN(C(=O)c4ncc(-c5ccccc5)o4)CC3)cc2c1C` [Example 354, N-(2-methoxyethyl)-4-methyl-2-({1-[(5-phenyloxazol-2-yl)carbonyl]piperidin-4-yl}methyl)-2H-indazol-5-carboxamide], the IC50 in assay [1] stood at 0.00587 µM. Also, the “Selectivity hEP2/hEP4” value in assay [2] is recorded as “xxx (xxx > 100)”. Also, the “Selectivity hEP2/hDP” value on human PGD receptor is recorded as “xxx (xxx > 100)”.
As for `CCOc1c(C(=O)NCCOC)ccc2nn(CC3CCN(C(=O)c4ccc(S(F)(F)(F)(F)F)cc4)CC3)cc12` [Example 275, 4-ethoxy-N-(2-methoxyethyl)-2-({1-[4-(pentafluoro-λ^6-sulphanyl)benzoyl]-piperidin-4-yl}methyl)-2H-indazol-5-carboxamide], the IC50 in assay [1] came to 0.0345 µM. Moreover, the “Selectivity hEP2/hEP4” value in assay [2] is listed as “xxx (xxx > 100)”. The “Selectivity hEP2/hDP” value at human PGD receptor was “xxx (xxx > 100)”.
Regarding `Cc1c(C(=O)NCC2CCCCO2)ccc2nn(CC3CN(C(=O)c4ccc(Cl)cc4)C3)cc12` (single isomer, unassigned) [Example 146, (S or R)-2-{[1-(4-chlorobenzoyl)azetidin-3-yl]methyl}-4-methyl-N-(3,4,5,6-tetrahydro-2H-pyran-2-ylmethyl)-2H-indazol-5-carboxamide], the IC50 in assay [1] came out at 0.0526 µM. Further, the “Selectivity hEP2/hEP4” value in assay [2] is reported as “xxx (xxx > 100)”. Besides, at human PGD receptor, the “Selectivity hEP2/hDP” value was “xxx (xxx > 100)”.
Regarding `COCCNC(=O)c1ccc2nn(CC3CCN(C(=O)c4ccc(Oc5cccnc5)cc4)CC3)cc2c1C` [Example 343, N-(2-methoxyethyl)-4-methyl-2-({1-[4-(3-pyridyloxy)benzoyl]piperidin-4-yl}methyl)-2H-indazol-5-carboxamide], in assay [1], the IC50 was 0.0424 µM. In addition, the “Selectivity hEP2/hEP4” value in assay [2] is “xxx (xxx > 100)”. Also, the “Selectivity hEP2/hDP” value on human PGD receptor is recorded as “xxx (xxx > 100)”.
On to `Cc1c(C(=O)NCCOC(F)(F)F)ccc2nn(CC3CCN(C(=O)c4ccc(-c5ccc(F)cc5)cc4)CC3)cc12` [Example 109, 2-({1-[(4′-fluoro-biphenyl-4-yl)-carbonyl]piperidin-4-yl}-methyl)-4-methyl-N-[2-(trifluoro-methoxy)ethyl]-2H-indazol-5-carboxamide], for which the IC50 in assay [1] was found to be 0.00953 µM. Besides, the “Selectivity hEP2/hEP4” value in assay [2] was “xxx (xxx > 100)”. In addition, the “Selectivity hEP2/hDP” value at human PGD receptor was “xxx (xxx > 100)”.
As for `COCCNC(=O)c1ccc2nn(CC3CCN(C(=O)c4ccc(-n5ccnc5)cc4)CC3)cc2c1C` [Example 34, 2-({1-[4-(1H-imidazol-1-yl)-benzoyl]piperidin-4-yl}methyl)-N-(2-methoxyethyl)-4-methyl-2H-indazol-5-carboxamide], the IC50 in assay [1] amounted to 0.134 µM. Also, the “Selectivity hEP2/hEP4” value in assay [2] is on record as “xxx (xxx > 100)”. For the same molecule, the “Selectivity hEP2/hDP” value at human PGD receptor is listed as “xxx (xxx > 100)”.
Take `Cc1c(C(=O)NCC2CC2)ccc2nn(CC3CCN(C(=O)c4ccc(Oc5ccc(C(F)(F)F)cc5)cc4)CC3)cc12` [Example 406, N-(cyclopropylmethyl)-4-methyl-2-[(1-{4-[4-(trifluoromethyl)phenoxy]-benzoyl}piperidin-4-yl)methyl]-2H-indazol-5-carboxamide]: the IC50 in assay [1] turned out to be 0.00819 µM. Further, in assay [2], the “Selectivity hEP2/hEP4” value was “xxx (xxx > 100)”. Further, the “Selectivity hEP2/hDP” value at human PGD receptor is recorded as “xxx (xxx > 100)”.
Regarding `Cc1c(C(=O)NCC(F)(F)F)ccc2nn(CC3CN(C(=O)c4ccc(S(F)(F)(F)(F)F)cc4)C3)cc12` [Example 132, 4-methyl-2-({1-[4-(pentafluoro-λ^6-sulphanyl)benzoyl]azetidin-3-yl}methyl)-N-(2,2,2-trifluoroethyl)-2H-indazol-5-carboxamide], the IC50 in assay [1] stood at 0.109 µM. For the same molecule, the “Selectivity hEP2/hEP4” value in assay [2] is “xxx (xxx > 100)”. For the same molecule, the “Selectivity hEP2/hDP” value on human PGD receptor is “xxx (xxx > 100)”.

The values above are taken from patent publication US9062041B2 (Bayer Intellectual Property GmbH, priority 2011, dated 2015).
